Reference: patent US9247750B2, “Polyenylcyclopropanecarboxylic esters with high insecticidal activity” (Endura S.P.A., priority 2007, dated 2016)

Tests used:
Type in all cases: in vivo
[1] = tested on: Culex quinquefasciatus; test: Insecticide effectiveness in the vapour phase against mosquitoes, impregnated paper unit in 20 m^3 room (Example 5); details: 5 mg/unit; for % mortality 24 h: 24th hour from start of test; for % Knock-down 8 h: at end of 8th hour; for Knock-down time KT10 / Knock-down time KT50 / Knock-down time KT90: average of 3 cages
Description: (§1) Test units consisting of a paper support 20 cm×10 cm in size were impregnated with the compound of example 3 and, for comparative purposes, with the reference compounds transfluthrin and metofluthrin, at an amount of 5.00 mg/unit for each compound (pure).
(§2) Using a common laboratory stand, the test unit was placed at a height of about 30 cm from the ground along one side of a 20 m^3 room (L 3.00 m×D 2.49 m×H 2.69 m). In order to homogenize the insecticidal air within the room, a small electric fan was placed on the floor diagonal to the surface of the unit, in the is nearest corner at a distance of about 50 cm from the unit. Three metal cages (L 8.4 cm×Ø 8.0 cm×mesh 1.0 mm) for every mosquito species, each containing 20 3-4 day old individuals of mixed sex, were placed along the other three sides of the room, at a height of 1.80 m from the ground and at a distance of 0.45 m from the respective walls. During the test the room was kept closed and temperature and humidity were controlled (T 23-26° C., RH 49-61%).
(§3) The fan was switched on and left on for 8 continuous hours. The times needed to reach 10%, 50% and 90% insect knock-down (KT10, KT50 and KT90, respectively) were recorded.
(§4) Every 2 hours and up to the 6th hour after the fan was switched on, new cages were introduced containing insects (set of 3 cages for each species).
(§5) At the end of the 8th hour, the percentage of insects knocked down in all the cages was determined, then the insects were removed from the room and transferred into an uncontaminated atmosphere within closed containers containing a sugary solution. The percentage mortality was recorded at the 24th hour from the start of the test.
(§6) The results obtained are summarized in tables 1 and 2 and the data are averages for the 3 cages.

[2] = tested on: Aedes aegypti; test: as above; details: 5 mg/unit; for % mortality 24 h: 24th hour from start of test; for % Knock-down 8 h: at end of 8th hour; for Knock-down time KT10 / Knock-down time KT50 / Knock-down time KT90: average of 3 cages
Description: as §1, §2, §3, §4, §5, §6

[3] = tested on: Culex quinquefasciatus; test: Insecticide effectiveness in the vapour phase against mosquitoes, impregnated paper unit in 20 m^3 room (Example 9); details: 5 mg/unit; for % mortality 24 h: 24th hour from start of test; for % Knock-down 8 h: at end of 8th hour; for Knock-down time KT10 / Knock-down time KT50 / Knock-down time KT90: average of 3 cages
Description: as §2, with “Test units consisting of a paper support 20 cm×10 cm in size were impregnated with the compound of examples 3, 7 and 8 and, for comparative purposes, with the reference compounds transfluthrin and metofluthrin, at an amount of 5.00 mg/unit for each compound (pure). Using” for “Using”, “the” for “the is”, “49-61%). The fan was switched on and left on for 8 continuous hours. The times needed to reach 10%, 50% and 90% insect knock-down (KT10, KT50 and KT90, respectively) were recorded.” for “49-61%).”
as §4, §5, §6

[4] = tested on: Aedes aegypti; test: as above; details: 5 mg/unit; for % mortality 24 h: 24th hour from start of test; for % Knock-down 8 h: at end of 8th hour; for Knock-down time KT10 / Knock-down time KT50 / Knock-down time KT90: average of 3 cages
Description: as §2, with “Test units consisting of a paper support 20 cm×10 cm in size were impregnated with the compound of examples 3, 7 and 8 and, for comparative purposes, with the reference compounds transfluthrin and metofluthrin, at an amount of 5.00 mg/unit for each compound (pure). Using” for “Using”, “the” for “the is”, “49-61%). The fan was switched on and left on for 8 continuous hours. The times needed to reach 10%, 50% and 90% insect knock-down (KT10, KT50 and KT90, respectively) were recorded.” for “49-61%).”
as §4, §5, §6

[5] = tested on: Blattella germanica; test: Effectiveness of residual insecticide on surfaces (glazed tiles) against cockroaches (Example 6); details: for Time to reach 100% knock-down followed by death: 50 mg/m^2 on glazed tiles
Description: Solutions of the compound of example 3 in acetone and, for comparison, of the reference compounds Transfluthrin and Metofluthrin were applied from a distance of 12 cm onto glazed tiles (Ostara model, 15×15 cm=225 cm^2) by means of a suitable glass sprayer, so as to obtain an applied amount of pure compound equal to 50 mg/m^2. After treatment the tiles were transferred to and maintained in a closed test room at controlled temperature and humidity (24-25° C., RH 50-60%). Glass rings (H 5.5 cm×Ø 9.5 cm), with their internal surface treated with talc, and each containing 5 cockroaches, were positioned at the centre of the tiles for each of the assessment times of 24 hours, 3, 7, 10 and 14 days following treatment. For each assessment day, the insects were maintained on the surface for 24 hours and the time (hours, minutes) necessary to attain 100% knock-down followed by death, or percentage knock-down at the end of 24 hours, were recorded.

SMILES: C=CC=C[C@@H]1[C@@H](C(=O)OCc2c(F)c(F)cc(F)c2F)C1(C)C (mixture of isomers) [Example 3, 2,3,5,6-tetrafluorobenzyl(1R,3R)-3-((E/Z)-Buta-1,3-dienyl)-2,2-dimethylcyclopropane-1-carboxylate]
- % mortality 24 h ([1]; insect exposure after 0 hours): 100%
- % Knock-down 8 h ([1]; insect exposure after 0 hours): 100%
- Knock-down time KT10 ([1]; insect exposure after 0 hours): 20 min
- Knock-down time KT50 ([1]; insect exposure after 0 hours): 23 min
- Knock-down time KT90 ([1]; insect exposure after 0 hours): 31 min
- % mortality 24 h ([1]; insect exposure after 2 hours): 100%
- % Knock-down 8 h ([1]; insect exposure after 2 hours): 100%
- Knock-down time KT10 ([1]; insect exposure after 2 hours): 6 min
- Knock-down time KT50 ([1]; insect exposure after 2 hours): 8 min
- Knock-down time KT90 ([1]; insect exposure after 2 hours): 12 min
- % mortality 24 h ([1]; insect exposure after 4 hours): 100%
- % Knock-down 8 h ([1]; insect exposure after 4 hours): 100%
- Knock-down time KT10 ([1]; insect exposure after 4 hours): 6 min
- Knock-down time KT50 ([1]; insect exposure after 4 hours): 10 min
- Knock-down time KT90 ([1]; insect exposure after 4 hours): 18 min
- % mortality 24 h ([2]; insect exposure after 0 hours): 100%
- % Knock-down 8 h ([2]; insect exposure after 0 hours): 100%
- Knock-down time KT10 ([2]; insect exposure after 0 hours): 16 min
- Knock-down time KT50 ([2]; insect exposure after 0 hours): 19 min
- Knock-down time KT90 ([2]; insect exposure after 0 hours): 25 min
- % mortality 24 h ([2]; insect exposure after 2 hours): 100%
- % Knock-down 8 h ([2]; insect exposure after 2 hours): 100%
- Knock-down time KT10 ([2]; insect exposure after 2 hours): 4 min
- Knock-down time KT50 ([2]; insect exposure after 2 hours): 6 min
- Knock-down time KT90 ([2]; insect exposure after 2 hours): 9 min
- % mortality 24 h ([2]; insect exposure after 4 hours): 100%
- % Knock-down 8 h ([2]; insect exposure after 4 hours): 100%
- Knock-down time KT10 ([2]; insect exposure after 4 hours): 4 min
- Knock-down time KT50 ([2]; insect exposure after 4 hours): 6 min
- Knock-down time KT90 ([2]; insect exposure after 4 hours): 11 min
- % mortality 24 h ([3]; insect exposure after 0 hours): 100%
- % Knock-down 8 h ([3]; insect exposure after 0 hours): 100%
- Knock-down time KT10 ([3]; insect exposure after 0 hours): 23 min
- Knock-down time KT50 ([3]; insect exposure after 0 hours): 28 min
- Knock-down time KT90 ([3]; insect exposure after 0 hours): 35 min
- % mortality 24 h ([3]; insect exposure after 2 hours): 100%
- % Knock-down 8 h ([3]; insect exposure after 2 hours): 100%
- Knock-down time KT10 ([3]; insect exposure after 2 hours): 7 min
- Knock-down time KT50 ([3]; insect exposure after 2 hours): 11 min
- Knock-down time KT90 ([3]; insect exposure after 2 hours): 15 min
- % mortality 24 h ([3]; insect exposure after 4 hours): 100%
- % Knock-down 8 h ([3]; insect exposure after 4 hours): 100%
- Knock-down time KT10 ([3]; insect exposure after 4 hours): 8 min
- Knock-down time KT50 ([3]; insect exposure after 4 hours): 10 min
- Knock-down time KT90 ([3]; insect exposure after 4 hours): 14 min
- % mortality 24 h ([4]; insect exposure after 0 hours): 100%
- % Knock-down 8 h ([4]; insect exposure after 0 hours): 100%
- Knock-down time KT10 ([4]; insect exposure after 0 hours): 16 min
- Knock-down time KT50 ([4]; insect exposure after 0 hours): 20 min
- Knock-down time KT90 ([4]; insect exposure after 0 hours): 26 min
- % mortality 24 h ([4]; insect exposure after 2 hours): 100%
- % Knock-down 8 h ([4]; insect exposure after 2 hours): 100%
- Knock-down time KT10 ([4]; insect exposure after 2 hours): 5 min
- Knock-down time KT50 ([4]; insect exposure after 2 hours): 8 min
- Knock-down time KT90 ([4]; insect exposure after 2 hours): 11 min
- % mortality 24 h ([4]; insect exposure after 4 hours): 100%
- % Knock-down 8 h ([4]; insect exposure after 4 hours): 100%
- Knock-down time KT10 ([4]; insect exposure after 4 hours): 5 min
- Knock-down time KT50 ([4]; insect exposure after 4 hours): 8 min
- Knock-down time KT90 ([4]; insect exposure after 4 hours): 12 min
- Time to reach 100% knock-down followed by death ([5]; 1 day after treatment): 15′ minutes
- Time to reach 100% knock-down followed by death ([5]; 3 days after treatment): 15′ minutes
- Time to reach 100% knock-down followed by death ([5]; 7 days after treatment): 15′ minutes
- Time to reach 100% knock-down followed by death ([5]; 10 days after treatment): 15′ minutes
- Time to reach 100% knock-down followed by death ([5]; 14 days after treatment): 15′ minutes
- time of exposure to total knock-down (100%) ([5]; table 3): ≤ 15 min
